Test results published in patent US12139492B2 (Endotarget Inc., priority 2021, dated 2024).
pIC50: −log10 of the molar value.

What was measured:
[1] = tested on: JeKo-1 cells; assay: Antiproliferative effect, MTS cell viability assay, JeKo-1 cells; format: cell-based; conditions: Homo sapiens; JeKo-1 mantle cell lymphoma cells; read-out: IC50 (anti-proliferation) JeKO-1 cells
Procedure, shortened: (§1)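 MTS read-out, A490 of formazan from metabolically active cells; compound 0–10 μM (0, 0.001, 0.01, 0.1, 1, 10 μM), 72 h exposure.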

[2] = tested on: Mino cells; assay: Antiproliferative effect, MTS cell viability assay, Mino cells; format: cell-based; conditions: Homo sapiens, MINO, Mino mantle cell lymphoma cells; read-out: IC50 (anti-proliferation) Mino cells
Procedure, shortened: as §1

[3] = target: BTK (Homo sapiens, UniProt Q06187); assay: Degradation of BTK protein in Namalwa cells (Western blot; DC50, Dmax); conditions: for DC50: BTK degradation, cell line not given
BTK, sequence (Q06187 whole entry): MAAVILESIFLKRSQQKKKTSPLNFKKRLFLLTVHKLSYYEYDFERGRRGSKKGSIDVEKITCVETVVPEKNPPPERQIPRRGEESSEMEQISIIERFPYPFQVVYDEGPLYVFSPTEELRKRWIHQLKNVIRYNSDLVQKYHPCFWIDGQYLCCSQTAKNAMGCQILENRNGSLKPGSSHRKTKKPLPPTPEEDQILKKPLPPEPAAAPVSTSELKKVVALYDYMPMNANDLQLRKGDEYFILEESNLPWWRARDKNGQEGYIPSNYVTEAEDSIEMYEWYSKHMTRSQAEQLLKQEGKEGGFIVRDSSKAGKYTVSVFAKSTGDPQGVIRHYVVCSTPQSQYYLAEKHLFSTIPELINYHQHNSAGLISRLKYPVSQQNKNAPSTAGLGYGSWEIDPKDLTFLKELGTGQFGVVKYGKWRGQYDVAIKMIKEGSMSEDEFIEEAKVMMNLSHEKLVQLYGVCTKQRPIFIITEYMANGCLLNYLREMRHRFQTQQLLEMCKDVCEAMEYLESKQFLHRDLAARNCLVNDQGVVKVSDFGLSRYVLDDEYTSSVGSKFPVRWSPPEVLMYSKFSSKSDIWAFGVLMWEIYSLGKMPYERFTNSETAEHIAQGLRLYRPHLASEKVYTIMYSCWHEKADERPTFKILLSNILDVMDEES

SMILES: NC(=O)c1c(-c2ccc(Oc3ccccc3)cc2)nn2c1NCCC2C1CCN(CC2CCN(C(=O)N3CCN(C4CCN(c5ccc6c(c5)C(=O)N(C5CCC(=O)NC5=O)C6=O)CC4)CC3)CC2)CC1 (stereo not drawn) [Compound 361, 7-(1-((1-(4-(1-(2-(2,6-dioxopiperidin-3-yl)-1,3-dioxoisoindolin-5-yl)piperidin-4-yl)piperazine-1-carbonyl)piperidin-4-yl)methyl)piperidin-4-yl)-2-(4-phenoxyphenyl)-4,5,6,7-tetrahydropyrazolo[1,5-a]pyrimidine-3-carboxamide]
- pIC50 [1]: 5.00 to 6.00
- pIC50 [2]: 5.00 to 6.00
- Dmax [3]: > 90%
- DC50 [3]: 10 to 50 nM

SMILES: NC(=O)c1c(-c2ccc(Oc3ccccc3)cc2)nn2c1NCCC2C1CCN(CC2CCN(C(=O)N3CCN(C4CCN(c5ccc6c(c5)CN(C5CCC(=O)NC5=O)C6=O)CC4)CC3)CC2)CC1 (stereo not drawn) [Compound 362, 7-(1-((1-(4-(1-(2-(2,6-dioxopiperidin-3-yl)-1-oxoisoindolin-5-yl)piperidin-4-yl)piperazine-1-carbonyl)piperidin-4-yl)methyl)piperidin-4-yl)-2-(4-phenoxyphenyl)-4,5,6,7-tetrahydropyrazolo[1,5-a]pyrimidine-3-carboxamide]
- pIC50 [1]: 5.00 to 6.00
- pIC50 [2]: 5.00 to 6.00
- Dmax [3]: > 90%
- DC50 [3]: < 10 nM

SMILES: NC(=O)c1c(-c2ccc(Oc3ccccc3)cc2)nn2c1NCCC2C1CCN(CC2CCN(C(=O)N3CCC(N4CCN(c5ccc6c(c5)C(=O)N(C5CCC(=O)NC5=O)C6=O)CC4)CC3)CC2)CC1 (stereo not drawn) [Compound 363, 7-(1-((1-(4-(4-(2-(2,6-dioxopiperidin-3-yl)-1,3-dioxoisoindolin-5-yl)piperazin-1-yl)piperidine-1-carbonyl)piperidin-4-yl)methyl)piperidin-4-yl)-2-(4-phenoxyphenyl)-4,5,6,7-tetrahydropyrazolo[1,5-a]pyrimidine-3-carboxamide]
- pIC50 [1]: 5.00 to 6.00
- pIC50 [2]: > 6.00
- Dmax [3]: > 90%
- DC50 [3]: 10 to 50 nM

SMILES: NC(=O)c1c(-c2ccc(Oc3ccccc3)cc2)nn2c1NCCC2C1CCN(CC2CCN(C(=O)N3CCC(N4CCN(c5ccc6c(c5)CN(C5CCC(=O)NC5=O)C6=O)CC4)CC3)CC2)CC1 (stereo not drawn) [Compound 364, 7-(1-((1-(4-(4-(2-(2,6-dioxopiperidin-3-yl)-1-oxoisoindolin-5-yl)piperazin-1-yl)piperidine-1-carbonyl)piperidin-4-yl)methyl)piperidin-4-yl)-2-(4-phenoxyphenyl)-4,5,6,7-tetrahydropyrazolo[1,5-a]pyrimidine-3-carboxamide]
- pIC50 [1]: > 6.00
- pIC50 [2]: > 6.00
- Dmax [3]: > 90%
- DC50 [3]: < 10 nM

SMILES: NC(=O)c1c(-c2ccc(Oc3ccccc3)cc2)nn2c1NCCC2C1CCN(CC2CCN(C(=O)N3CCC(C4CCN(c5ccc6c(c5)C(=O)N(C5CCC(=O)NC5=O)C6=O)CC4)CC3)CC2)CC1 (stereo not drawn) [Compound 365, 7-(1-((1-(1′-(2-(2,6-dioxopiperidin-3-yl)-1,3-dioxoisoindolin-5-yl)-[4,4′-bipiperidine]-1-carbonyl)piperidin-4-yl)methyl)piperidin-4-yl)-2-(4-phenoxyphenyl)-4,5,6,7-tetrahydropyrazolo[1,5-a]pyrimidine-3-carboxamide]
- pIC50 [1]: > 6.00
- pIC50 [2]: > 6.00
- Dmax [3]: > 90%
- DC50 [3]: 10 to 50 nM

SMILES: NC(=O)c1c(-c2ccc(Oc3ccccc3)cc2)nn2c1NCCC2C1CCN(CC2CCN(C(=O)N3CCC(C4CCN(c5ccc6c(c5)CN(C5CCC(=O)NC5=O)C6=O)CC4)CC3)CC2)CC1 (stereo not drawn) [Compound 366, 7-(1-((1-(1′-(2-(2,6-dioxopiperidin-3-yl)-1-oxoisoindolin-5-yl)-[4,4′-bipiperidine]-1-carbonyl)piperidin-4-yl)methyl)piperidin-4-yl)-2-(4-phenoxyphenyl)-4,5,6,7-tetrahydropyrazolo[1,5-a]pyrimidine-3-carboxamide]
- pIC50 [1]: > 6.00
- pIC50 [2]: > 6.00
- Dmax [3]: > 90%
- DC50 [3]: < 10 nM
